Assay results from patent US9067943B2, “[1,2,3]triazolo[4,5-D]pyrimidine derivatives” (priority 2011, dated 2015).
Where two headings read alike, the source gives them in different places.

What was measured:
[1] = molecular target: T1, human CB1 receptors (Homo sapiens, UniProt P21554); test: cAMP assay; type: cell-based
T1 construct: expressed in transfected cells; host or cells: CHO cells
Procedure: (§1) CHO cells expressing human CB1 or CB2 receptors are seeded 17-24 hours prior to the experiment 50.000 cells per well in a black 96 well plate with flat clear bottom (Corning Costar #3904) in DMEM (Invitrogen No. 31331), 1×HT supplement, with 10% fetal calf serum and incubated at 5% CO2 and 37° C. in a humidified incubator. The growth medium was exchanged with Krebs Ringer Bicarbonate buffer with 1 mM IBMX and incubated at 30° C. for 30 min. Compounds were added to a final assay volume of 100 μl and incubated for 30 min at 30° C. Using the cAMP-Nano-TRF detection kit the assay (Roche Diagnostics) was stopped by the addition of 50 μl lysis reagent (Tris, NaCl, 1.5% Triton X100, 2.5% NP40, 10% NaN3) and 50 μl detection solutions (20 μM mAb Alexa700-cAMP 1:1, and 48 μM Ruthenium-2-AHA-cAMP) and shaken for 2 h at room temperature. The time-resolved energy transfer is measured by a TRF reader (Evotec Technologies GmbH), equipped with a ND:YAG laser as excitation source. The plate is measured twice with the excitation at 355 nm and at the emission with a delay of 100 ns and a gate of 100 ns, total exposure time 10 s at 730 (bandwidth 30 nm) or 645 nm (bandwidth 75 nm), respectively. The FRET signal is calculated as follows: FRET=T730-Alexa730-P(T645-B645) with P=Ru730-B730/Ru645-B645, where T730 is the test well measured at 730 nM, T645 is the test well measured at 645 nm, B730 and B645 are the buffer controls at 730 nm and 645 nm, respectively. cAMP content is determined from the function of a standard curve spanning from 10 μM to 0.1 nM cAMP.
(§2) EC50 values were determined using Activity Base analysis (ID Business Solution, Limited). The EC50 values for a wide range of cannabinoid agonists generated from this assay were in agreement with the values published in the scientific literature.

[2] = molecular target: T2, human CB2 receptors (Homo sapiens, UniProt P34972); test: cAMP assay; type: cell-based
T2 construct: expressed in transfected cells; host or cells: CHO cells
Procedure: as §1, §2

[3] = functional cAMP assay, CHO cells expressing human CB2, read-out: human CB2 EC50

T1 sequence (P21554 whole entry): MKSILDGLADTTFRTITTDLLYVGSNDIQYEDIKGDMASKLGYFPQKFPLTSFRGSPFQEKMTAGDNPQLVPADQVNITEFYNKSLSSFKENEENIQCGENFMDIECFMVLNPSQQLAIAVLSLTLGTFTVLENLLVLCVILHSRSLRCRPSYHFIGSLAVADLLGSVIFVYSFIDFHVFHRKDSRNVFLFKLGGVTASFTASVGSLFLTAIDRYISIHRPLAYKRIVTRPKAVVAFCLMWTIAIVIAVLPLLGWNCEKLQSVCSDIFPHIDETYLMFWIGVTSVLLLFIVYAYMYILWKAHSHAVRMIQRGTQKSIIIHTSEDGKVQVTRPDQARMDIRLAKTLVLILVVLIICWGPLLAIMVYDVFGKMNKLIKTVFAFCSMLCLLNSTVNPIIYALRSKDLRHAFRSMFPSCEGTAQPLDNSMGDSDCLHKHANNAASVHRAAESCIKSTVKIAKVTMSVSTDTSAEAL
T2 sequence (P34972 whole entry): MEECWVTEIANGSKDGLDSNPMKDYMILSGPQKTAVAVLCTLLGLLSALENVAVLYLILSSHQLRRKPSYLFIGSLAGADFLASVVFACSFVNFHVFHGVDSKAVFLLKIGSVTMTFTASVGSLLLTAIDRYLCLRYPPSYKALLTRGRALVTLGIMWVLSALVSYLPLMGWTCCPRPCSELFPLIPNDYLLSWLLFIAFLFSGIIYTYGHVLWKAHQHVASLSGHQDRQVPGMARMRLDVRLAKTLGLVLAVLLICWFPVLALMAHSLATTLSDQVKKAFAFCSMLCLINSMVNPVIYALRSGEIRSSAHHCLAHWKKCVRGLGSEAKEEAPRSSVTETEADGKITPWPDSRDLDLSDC

Cc1nonc1Cn1nc2nc(O[C@@H](C)C(F)(F)F)nc(N3CCC(F)(F)C3)c2n1 [Example 121, 7-(3,3-Difluoro-pyrrolidin-1-yl)-2-(4-methyl-furazan-3-ylmethyl)-5-((S)-2,2,2-trifluoro-1-methyl-ethoxy)-2H-[1,2,3]triazolo[4,5-d]pyrimidine]
EC50 [1]: > 10000 nM
EC50 [2]: 7.5 nM

CC(C)(C)c1nc(N2CC[C@H](O)C2)c2nn(Cc3cccnc3Nc3ccc([N+](=O)[O-])c4nonc34)nc2n1 [Example 93, (S)-1-{5-tert-Butyl-2-[2-(7-nitro-benzo[1,2,5]oxadiazol-4-ylamino)-pyridin-3-ylmethyl]-2H-[1,2,3]triazolo[4,5-d]pyrimidin-7-yl}-pyrrolidin-3-ol]
EC50 [1]: > 10000 nM
EC50 [2, 3]: 270 nM

CC(C)(C)c1nc(N2CCC(F)(F)C2)c2nn(Cc3cccc(Cl)c3)nc2n1 [Example 7, 5-tert-Butyl-2-(3-chloro-benzyl)-7-(3,3-difluoro-pyrrolidin-1-yl)-2H-[1,2,3]triazolo[4,5-d]pyrimidine]
EC50 [1]: > 10000 nM
EC50 [2]: 4.1 nM

CC(C)(C)c1nc(N2CCC(F)(F)C2)c2nn(CCc3ccccc3Cl)nc2n1 [Example 41, 5-tert-Butyl-2-[2-(2-chloro-phenyl)-ethyl]-7-(3,3-difluoro-pyrrolidin-1-yl)-2H-[1,2,3]triazolo[4,5-d]pyrimidine]
EC50 [1]: 498 nM
EC50 [2]: 0.5 nM

Cc1cc(Cn2nc3nc(C(C)(C)C)nc(N4CCC(F)(F)C4)c3n2)n(C)n1 [Example 81, 5-tert-Butyl-7-(3,3-difluoro-pyrrolidin-1-yl)-2-(2,5-dimethyl-2H-pyrazol-3-ylmethyl)-2H-[1,2,3]triazolo[4,5-d]pyrimidine]
EC50 [1]: > 10000 nM
EC50 [2]: 9.4 nM

Cn1nnnc1Cn1nc2nc(C(C)(C)C)nc(N3CCC(F)(F)C3)c2n1 [Example 68, 5-tert-Butyl-7-(3,3-difluoro-pyrrolidin-1-yl)-2-(1-methyl-1H-tetrazol-5-ylmethyl)-2H-[1,2,3]triazolo[4,5-d]pyrimidine]
EC50 [1]: > 10000 nM
EC50 [2]: 2.3 nM

Cn1nncc1Cn1nc2nc(C(C)(C)C)nc(N3CC(F)(F)C(F)(F)C3)c2n1 [Example 104, 5-tert-Butyl-2-(3-methyl-3H-[1,2,3]triazol-4-ylmethyl)-7-(3,3,4,4-tetrafluoro-pyrrolidin-1-yl)-2H-[1,2,3]triazolo[4,5-d]pyrimidine]
EC50 [1]: > 10000 nM
EC50 [2]: 10.1 nM

CC(C)(C)c1nc(N2CCC(F)(F)C2)c2nn([C@H]3CCOC3)nc2n1 [Example 46, 5-tert-Butyl-7-(3,3-difluoro-pyrrolidin-1-yl)-2-(S)-tetrahydro-furan-3-yl-2H-[1,2,3]triazolo[4,5-d]pyrimidine]
EC50 [1]: > 10000 nM
EC50 [2]: 2.8 nM

CC(C)(C)c1nc(N2CCC(F)(F)C2)c2nn(Cc3cc(Cl)cnc3Cl)nc2n1 [Example 37, 5-tert-Butyl-2-(2,5-dichloro-pyridin-3-ylmethyl)-7-(3,3-difluoro-pyrrolidin-1-yl)-2H-[1,2,3]triazolo[4,5-d]pyrimidine]
EC50 [1]: > 10000 nM
EC50 [2]: 0.9 nM

Cn1nnnc1Cn1nc2nc(C(C)(C)C)nc(N3CCC(O)C3)c2n1 (stereo not shown) [Example 114, 1-[5-tert-Butyl-2-(1-methyl-1H-tetrazol-5-ylmethyl)-2H-[1,2,3]triazolo[4,5-d]pyrimidin-7-yl]-pyrrolidin-3-ol]
EC50 [1]: > 10000 nM
EC50 [2]: 164 nM

CC(C)(C)c1nc(N2CCC(F)(F)C2)c2nn(CC(=O)c3cccnc3)nc2n1 [Example 54, 2-[5-tert-Butyl-7-(3,3-difluoro-pyrrolidin-1-yl)-[1,2,3]triazolo[4,5-d]pyrimidin-2-yl]-1-pyridin-3-yl-ethanone]
EC50 [1]: > 10000 nM
EC50 [2]: 6.5 nM

CC(C)(C)c1nc(N2CCC(F)(F)C2)c2nn(Cc3c(F)cccc3Cl)nc2n1 [Example 14, 5-tert-Butyl-2-(2-chloro-6-fluoro-benzyl)-7-(3,3-difluoro-pyrrolidin-1-yl)-2H-[1,2,3]triazolo[4,5-d]pyrimidine]
EC50 [1]: 65 nM
EC50 [2]: 0.5 nM

Cc1cc(Cn2nc3nc(C(C)(C)C)nc(N4CC[C@H](O)C4)c3n2)n(C)n1 [Example 91, (S)-1-[5-tert-Butyl-2-(2,5-dimethyl-2H-pyrazol-3-ylmethyl)-2H-[1,2,3]triazolo[4,5-d]pyrimidin-7-yl]-pyrrolidin-3-ol]
EC50 [1]: > 10000 nM
EC50 [2, 3]: 124 nM

CC(C)(C)c1nc(N2CC[C@@](C)(O)C2)c2nn(CCC(F)(F)F)nc2n1 [Example 132-b, (R)-1-[5-tert-Butyl-2-(3,3,3-trifluoro-propyl)-2H-[1,2,3]triazolo[4,5-d]pyrimidin-7-yl]-3-methyl-pyrrolidin-3-ol]
EC50 [1]: > 10000 nM
EC50 [2]: 69.8 nM

CC(C)(C)c1nc(N2CCC(F)(F)C2)c2nn(CCc3ccccn3)nc2n1 [Example 50, 5-tert-Butyl-7-(3,3-difluoro-pyrrolidin-1-yl)-2-(2-pyridin-2-yl-ethyl)-2H-[1,2,3]triazolo[4,5-d]pyrimidine]
EC50 [1]: > 10000 nM
EC50 [2]: 1.5 nM

COc1ccccc1Cn1nc2nc(C(C)(C)C)nc(N3CCC(F)(F)C3)c2n1 [Example 23, 5-tert-Butyl-7-(3,3-difluoro-pyrrolidin-1-yl)-2-(2-methoxy-benzyl)-2H-[1,2,3]triazolo[4,5-d]pyrimidine]
EC50 [1]: 86 nM
EC50 [2]: 0.2 nM

CC(C)(C)c1nc(N2CCC(F)(F)C2)c2nn(CCc3ccncc3)nc2n1 [Example 59, 5-tert-Butyl-7-(3,3-difluoro-pyrrolidin-1-yl)-2-(2-pyridin-4-yl-ethyl)-2H-[1,2,3]triazolo[4,5-d]pyrimidine]
EC50 [1]: > 10000 nM
EC50 [2]: 3.5 nM

Cc1nc(Cn2nc3nc(C(C)(C)C)nc(N4CCC(F)(F)C4)c3n2)no1 [Example 67, 5-tert-Butyl-7-(3,3-difluoro-pyrrolidin-1-yl)-2-(5-methyl-[1,2,4]oxadiazol-3-ylmethyl)-2H-[1,2,3]triazolo[4,5-d]pyrimidine]
EC50 [1]: 1630 nM
EC50 [2]: 1.3 nM

CC(C)(C)c1nc(N2CC[C@H](O)C2)c2nn(Cc3cccnc3Cl)nc2n1 [Example 77, (S)-1-[5-tert-Butyl-2-(2-chloro-pyridin-3-ylmethyl)-2H-[1,2,3]triazolo[4,5-d]pyrimidin-7-yl]-pyrrolidin-3-ol]
EC50 [1]: > 10000 nM
EC50 [2]: 15.5 nM

CC(C)(C)c1nc(N2CCC(F)(F)C2)c2nn(Cc3nccc(Cl)c3Cl)nc2n1 [Example 61, 5-tert-Butyl-2-(3,4-dichloro-pyridin-2-ylmethyl)-7-(3,3-difluoro-pyrrolidin-1-yl)-2H-[1,2,3]triazolo[4,5-d]pyrimidine]
EC50 [1]: > 10000 nM
EC50 [2]: 2.6 nM

CC(C)(C)c1nc(N2CC[C@@](C)(O)C2)c2nn(Cc3ccccc3Cl)nc2n1 [Example 124-b, (R)-1-[5-tert-Butyl-2-(2-chloro-benzyl)-2H-[1,2,3]triazolo[4,5-d]pyrimidin-7-yl]-3-methyl-pyrrolidin-3-ol]
EC50 [1]: > 10000 nM
EC50 [2]: 6.8 nM

CC(C)(C)c1nc(N2CCC(F)(F)C2)c2nn(CC(=O)c3ccccc3)nc2n1 [Example 27, 2-[5-tert-Butyl-7-(3,3-difluoro-pyrrolidin-1-yl)-[1,2,3]triazolo[4,5-d]pyrimidin-2-yl]-1-phenyl-ethanone]
EC50 [1]: > 10000 nM
EC50 [2]: 0.9 nM

COCCn1nc2nc(C(C)(C)C)nc(N3CCC(F)(F)C3)c2n1 [Example 4, 5-tert-Butyl-7-(3,3-difluoro-pyrrolidin-1-yl)-2-(2-methoxy-ethyl)-2H-[1,2,3]triazolo[4,5-d]pyrimidine]
EC50 [1]: > 10000 nM
EC50 [2]: 8 nM
